Test results taken from publication PMC10052035, “Virtual Screening, Structural Analysis, and Formation Thermodynamics of Carbamazepine Cocrystals” (Pharmaceutics, 2023).

What was measured:
[1] = parameters: method as in doi:10.1016/j.molliq.2021.118320; details: pH 2.0, 310.2 K; value belongs to the coformer of the cocrystal named in the row; ref [103]; cited from earlier work
[2] = Solubility of cocrystals and their constituents in organic solvents (shake-flask, HPLC); details: for solubility at 48 h: organic solvent or mixture, thermodynamic from solid; for Cp∙10^2, solubility of pure component: 293.15 K, value is C∙10^2
Experimental: For the [CBZ + 3AcAmBA] (1:1) cocrystal, methanol was used. For [CBZ + 4AcAmBA] (1:1), all the experiments were performed in acetonitrile. An excess of the solid was placed in an Eppendorf tube, and 2 mL of solvent was added. The resulting suspension was shaken in a ThermoMixer C (Eppendorf, Hamburg, Germany) at 800 rpm for 48 h at the specified temperature. Subsequently, the saturated solution was separated using a 0.22 μm PTEF filter, diluted, and analyzed using HPLC. The solid phases after the experiment were collected and characterized by PXRD. Each experiment was repeated three times.
The HPLC was performed on an LC-20 AD Shimadzu Prominence model (Shimadzu, Kyoto, Japan) equipped with a PDA detector and a Luna C-18 column (150 mm × 4.6 mm i.d., 5 μm particle size, and 100 Å pore size). The column temperature was set to 40 °C. To achieve the proper separation of the cocrystal components, different ratios of the mobile phase, consisting of acetonitrile and a 0.1% aqueous solution of trifluoroacetic acid (35:65 v/v), were used. The flow rate was 1.0 mL·min^−1, and the injection volume was 20 μL. The UV detection of carbamazepine, 2-acetamidobenzoic acid, 3-acetamidobenzoic acid, and 4-acetamidobenzoic acid was carried out at the wavelengths of 285 nm, 249 nm, 220 nm, and 266 nm, respectively.

| SMILES | S0(CF), intrinsic solubility of coformer [1] | solubility ratio Cp,CBZ/Cp,coformer ([2]; Acetonitrile, Table S6) | solubility at 48 h ([2]; acetonitrile, 20 °C) | solubility at 48 h ([2]; methanol, 20 °C) | solubility at 48 h ([2]; methanol, 25 °C) | solubility at 48 h ([2]; methanol, 30 °C) | solubility at 48 h ([2]; methanol, 35 °C) | solubility at 48 h ([2]; methanol, 40 °C) | Cp∙10^2, solubility of pure component ([2]; methanol) | solubility ratio Cp,CBZ/Cp,coformer ([2]; 48 h) | solubility at 48 h ([2]; acetonitrile, 25 °C) | solubility at 48 h ([2]; acetonitrile, 30 °C) | solubility at 48 h ([2]; acetonitrile, 35 °C) | solubility at 48 h ([2]; acetonitrile, 40 °C) | Cp∙10^2, solubility of pure component ([2]; acetonitrile) |
| --- | --- | --- | --- | --- | --- | --- | --- | --- | --- | --- | --- | --- | --- | --- | --- |
| CC(=O)Nc1ccccc1C(=O)O [Cocrystal 2AcAmBA, 2-acetamidobenzoic acid] | 11.5 mM | 5.7 | 25 ± 0.8 mM |  |  |  |  |  |  |  |  |  |  |  |  |
| CC(=O)Nc1cccc(C(=O)O)c1 [Cocrystal 3AcAmBA, 3-acetamidobenzoic acid] | 4.1 mM |  | 4.3 ± 1 mM | 75 ± 0.5 mM | 87 ± 0.5 mM | 97 ± 0.5 mM | 109 ± 0.8 mM | 119.5 ± 0.6 mM | 7.50±0.05 mol/l |  |  |  |  |  |  |
| CC(=O)Nc1ccc(C(=O)O)cc1 [Cocrystal 4AcAmBA, 4-acetamidobenzoic acid] | 4.6 mM |  | 10.1 ± 0.1 mM |  |  |  |  |  |  | 14.1 | 11.45 ± 0.05 mM | 12.8 ± 0.07 mM | 14.73 ± 0.07 mM | 16.6 ± 0.3 mM | 1.010±0.010 mol/l |
